Legend:
[1] = tested on: Klebsiella (Calymmatobacterium) granulomatis; assay: Expected efficacy of antibiotic agents; conditions: expected efficacy against Klebsiella (Calymmatobacterium) granulomatis
Enterococcus faecium = assay: Expected efficacy of antibiotic agents; conditions: expected efficacy against Enterococcus faecium
Bartonella bacilliformis = assay: Expected efficacy of antibiotic agents; conditions: expected efficacy against Bartonella bacilliformis
[2] = tested on: Staphylococcus epidermidis; assay: Expected efficacy of antibiotic agents; conditions: expected efficacy against Staphylococcus epidermidis
Haemophilus influenzae = assay: Expected efficacy of antibiotic agents; conditions: expected efficacy against Haemophilus influenzae
Morganella morganii = assay: Expected efficacy of antibiotic agents; conditions: expected efficacy against Morganella morganii
Enterobacter sakazakii = assay: Expected efficacy of antibiotic agents; conditions: expected efficacy against Enterobacter sakazakii
Bordetella pertussis = assay: Expected efficacy of antibiotic agents; conditions: expected efficacy against Bordetella pertussis
Providencia rettgeri = assay: Expected efficacy of antibiotic agents; conditions: expected efficacy against Providencia rettgeri
Mycoplasma pneumoniae = assay: Expected efficacy of antibiotic agents; conditions: expected efficacy against Mycoplasma pneumoniae
Campylobacter jejuni = assay: Expected efficacy of antibiotic agents; conditions: expected efficacy against Campylobacter jejuni
Francisella tularensis = conditions: expected efficacy against Francisella tularensis
Citrobacter diversus = assay: Expected efficacy of antibiotic agents; conditions: expected efficacy against Citrobacter diversus
[3] = tested on: Methicillin resistant staph aureus (MRSA); assay: Expected efficacy of antibiotic agents; conditions: expected efficacy against Methicillin resistant staph aureus (MRSA)
Acinetobacter lwoffii = assay: Expected efficacy of antibiotic agents; conditions: expected efficacy against Acinetobacter lwoffii
Enterobacter cloacae = assay: Expected efficacy of antibiotic agents; conditions: expected efficacy against Enterobacter cloacae
[4] = tested on: Acinetobacter calcoaceticus; assay: Expected efficacy of antibiotic agents; conditions: expected efficacy against Acinetobacter calcoaceticus
Clostridium difficile = assay: Expected efficacy of antibiotic agents; conditions: expected efficacy against Clostridium difficile
Serratia marcescens = assay: Expected efficacy of antibiotic agents; conditions: expected efficacy against Serratia marcescens
Chlamydia psittaci = conditions: expected efficacy against Chlamydia psittaci
Pseudomonas aeruginosa = assay: Expected efficacy of antibiotic agents; conditions: expected efficacy against Pseudomonas aeruginosa
Enterococcus faecalis = assay: Expected efficacy of antibiotic agents; conditions: expected efficacy against Enterococcus faecalis
Corynebacterium jeikeium = assay: Expected efficacy of antibiotic agents; conditions: expected efficacy against Corynebacterium jeikeium
Enterobacter aerogenes = assay: Expected efficacy of antibiotic agents; conditions: expected efficacy against Enterobacter aerogenes
Moraxella catarrhalis = assay: Expected efficacy of antibiotic agents; conditions: expected efficacy against Moraxella catarrhalis
Streptococcus agalactiae = assay: Expected efficacy of antibiotic agents; conditions: expected efficacy against Streptococcus agalactiae
Neisseria meningitidis = assay: Expected efficacy of antibiotic agents; conditions: expected efficacy against Neisseria meningitidis
Clostridium perfringens = conditions: expected efficacy against Clostridium perfringens
Vibrio cholerae = assay: Expected efficacy of antibiotic agents; conditions: expected efficacy against Vibrio cholerae
Proteus mirabilis = assay: Expected efficacy of antibiotic agents; conditions: expected efficacy against Proteus mirabilis
Providencia stuartii = assay: Expected efficacy of antibiotic agents; conditions: expected efficacy against Providencia stuartii
Chlamydia pneumoniae = assay: Expected efficacy of antibiotic agents; conditions: expected efficacy against Chlamydia pneumoniae
[5] = tested on: Staphylococcus aureus (MSSA); assay: Expected efficacy of antibiotic agents; conditions: expected efficacy against Staphylococcus aureus (MSSA)
Citrobacter freundii = assay: Expected efficacy of antibiotic agents; conditions: expected efficacy against Citrobacter freundii
Streptococcus pyogenes = assay: Expected efficacy of antibiotic agents; conditions: expected efficacy against Streptococcus pyogenes
Acinetobacter baumannii = assay: Expected efficacy of antibiotic agents; conditions: expected efficacy against Acinetobacter baumannii
Rickettsiae = conditions: expected efficacy against Rickettsiae
Escherichia coli = assay: Expected efficacy of antibiotic agents; conditions: expected efficacy against Escherichia coli
Pseudomonas fluorescens = assay: Expected efficacy of antibiotic agents; conditions: expected efficacy against Pseudomonas fluorescens
Klebsiella oxytoca = assay: Expected efficacy of antibiotic agents; conditions: expected efficacy against Klebsiella oxytoca
Brucella species = conditions: expected efficacy against Brucella species
Chlamydia trachomatis = assay: Expected efficacy of antibiotic agents; conditions: expected efficacy against Chlamydia trachomatis
Klebsiella pneumoniae = assay: Expected efficacy of antibiotic agents; conditions: expected efficacy against Klebsiella pneumoniae
Streptococcus pneumoniae = assay: Expected efficacy of antibiotic agents; conditions: expected efficacy against Streptococcus pneumoniae
Legionella pneumophila = conditions: expected efficacy against Legionella pneumophila
Bacteroides fragilis = assay: Expected efficacy of antibiotic agents; conditions: expected efficacy against Bacteroides fragilis
Proteus vulgaris = assay: Expected efficacy of antibiotic agents; conditions: expected efficacy against Proteus vulgaris
Shigella boydii = assay: Expected efficacy of antibiotic agents; conditions: expected efficacy against Shigella boydii
Shigella flexneri = assay: Expected efficacy of antibiotic agents; conditions: expected efficacy against Shigella flexneri
Yersinia pestis = conditions: expected efficacy against Yersinia pestis
[6] = tested on: Corynebacterium urealyticum; assay: Expected efficacy of antibiotic agents; conditions: expected efficacy against Corynebacterium urealyticum
Shigella dysenteriae = assay: Expected efficacy of antibiotic agents; conditions: expected efficacy against Shigella dysenteriae
Shigella sonnei = assay: Expected efficacy of antibiotic agents; conditions: expected efficacy against Shigella sonnei
Salmonella typhi = assay: Expected efficacy of antibiotic agents; conditions: expected efficacy against Salmonella typhi
Haemophilus ducreyi = assay: Expected efficacy of antibiotic agents; conditions: expected efficacy against Haemophilus ducreyi
Neisseria gonorrhoeae = assay: Expected efficacy of antibiotic agents; conditions: expected efficacy against Neisseria gonorrhoeae
[7] = tested on: Haemophilus parainfluenzae; assay: Expected efficacy of antibiotic agents; conditions: expected efficacy against Haemophilus parainfluenzae
Candida species = assay: Expected efficacy of antifungal agents; conditions: expected efficacy against Candida species

## CC[C@H]1OC(=O)[C@H](C)[C@@H](O[C@H]2C[C@@](C)(OC)[C@@H](O)[C@H](C)O2)[C@H](C)[C@@H](O[C@@H]2O[C@H](C)C[C@H](N(C)C)[C@H]2O)[C@](C)(O)C[C@@H](C)CN(C)[C@H](C)[C@@H](O)[C@]1(C)O [Azithromycin]
[1]
  Efficacy: no
Enterococcus faecium
  Efficacy: no
Bartonella bacilliformis
  Efficacy: yes
[2]
  Efficacy: yes
Haemophilus influenzae
  Efficacy: yes
Morganella morganii
  Efficacy: no
Enterobacter sakazakii
  Efficacy: no
Bordetella pertussis
  Efficacy: yes
Providencia rettgeri
  Efficacy: no
Mycoplasma pneumoniae
  Efficacy: yes
Campylobacter jejuni
  Efficacy: yes
Francisella tularensis
  Efficacy: no
Citrobacter diversus
  Efficacy: no
[3]
  Efficacy: no
Acinetobacter lwoffii
  Efficacy: no
Enterobacter cloacae
  Efficacy: no
[4]
  Efficacy: no
Clostridium difficile
  Efficacy: no
Serratia marcescens
  Efficacy: no
Chlamydia psittaci
  Efficacy: yes
Pseudomonas aeruginosa
  Efficacy: no
Enterococcus faecalis
  Efficacy: no
Corynebacterium jeikeium
  Efficacy: no
Enterobacter aerogenes
  Efficacy: no
Moraxella catarrhalis
  Efficacy: yes
Streptococcus agalactiae
  Efficacy: yes
Neisseria meningitidis
  Efficacy: yes
Clostridium perfringens
  Efficacy: no
Vibrio cholerae
  Efficacy: yes
Proteus mirabilis
  Efficacy: no
Providencia stuartii
  Efficacy: no
Chlamydia pneumoniae
  Efficacy: yes
[5]
  Efficacy: yes
Citrobacter freundii
  Efficacy: no
Streptococcus pyogenes
  Efficacy: yes
Acinetobacter baumannii
  Efficacy: no
Rickettsiae
  Efficacy: yes
Escherichia coli
  Efficacy: no
Pseudomonas fluorescens
  Efficacy: no
Klebsiella oxytoca
  Efficacy: no
Brucella species
  Efficacy: no
Chlamydia trachomatis
  Efficacy: yes
Klebsiella pneumoniae
  Efficacy: no
Streptococcus pneumoniae
  Efficacy: yes
Legionella pneumophila
  Efficacy: yes
Bacteroides fragilis
  Efficacy: no
Proteus vulgaris
  Efficacy: no

## C/C(=C\C(=O)OCCCCCCCCC(=O)O)C[C@@H]1OC[C@H](C[C@@H]2O[C@H]2[C@@H](C)[C@H](C)O)[C@@H](O)[C@H]1O [Bactroban]
[1]
  Efficacy: no
Bartonella bacilliformis
  Efficacy: no
Shigella boydii
  Efficacy: no
Shigella flexneri
  Efficacy: no
Haemophilus influenzae
  Efficacy: no
Morganella morganii
  Efficacy: no
Enterobacter sakazakii
  Efficacy: no
Bordetella pertussis
  Efficacy: no
Providencia rettgeri
  Efficacy: no
Campylobacter jejuni
  Efficacy: no
Yersinia pestis
  Efficacy: no
Francisella tularensis
  Efficacy: no
Citrobacter diversus
  Efficacy: no
[3]
  Efficacy: yes
Acinetobacter lwoffii
  Efficacy: no
Enterobacter cloacae
  Efficacy: no
[4]
  Efficacy: no
[6]
  Efficacy: no
Serratia marcescens
  Efficacy: no
Shigella dysenteriae
  Efficacy: no
Pseudomonas aeruginosa
  Efficacy: no
Corynebacterium jeikeium
  Efficacy: no
Enterobacter aerogenes
  Efficacy: no
Moraxella catarrhalis
  Efficacy: no
Neisseria meningitidis
  Efficacy: no
Shigella sonnei
  Efficacy: no
Clostridium perfringens
  Efficacy: no
Vibrio cholerae
  Efficacy: no
Proteus mirabilis
  Efficacy: no
Providencia stuartii
  Efficacy: no
[5]
  Efficacy: yes
Citrobacter freundii
  Efficacy: no
Salmonella typhi
  Efficacy: no
Streptococcus pyogenes
  Efficacy: yes
Acinetobacter baumannii
  Efficacy: no
Haemophilus ducreyi
  Efficacy: no
Rickettsiae
  Efficacy: no
Neisseria gonorrhoeae
  Efficacy: no
Escherichia coli
  Efficacy: no
Pseudomonas fluorescens
  Efficacy: no
Klebsiella oxytoca
  Efficacy: no
Brucella species
  Efficacy: no
Klebsiella pneumoniae
  Efficacy: no
Legionella pneumophila
  Efficacy: no
Proteus vulgaris
  Efficacy: no

## O=C(O)c1cn(C2CC2)c2cc(N3CCNCC3)c(F)cc2c1=O [Ciprofloxacin, ciprofloxacin]
Enterococcus faecium
  Efficacy: no
Bartonella bacilliformis
  Efficacy: yes
Shigella boydii
  Efficacy: yes
[2]
  Efficacy: yes
Shigella flexneri
  Efficacy: yes
Haemophilus influenzae
  Efficacy: yes
Morganella morganii
  Efficacy: yes
Providencia rettgeri
  Efficacy: yes
Campylobacter jejuni
  Efficacy: yes
[7]
  Efficacy: yes
Yersinia pestis
  Efficacy: yes
Francisella tularensis
  Efficacy: yes
Citrobacter diversus
  Efficacy: yes
[3]
  Efficacy: no
Serratia marcescens
  Efficacy: yes
Shigella dysenteriae
  Efficacy: yes
Pseudomonas aeruginosa
  Efficacy: yes
Corynebacterium jeikeium
  Efficacy: no
Enterobacter aerogenes
  Efficacy: yes
Moraxella catarrhalis
  Efficacy: yes
Neisseria meningitidis
  Efficacy: yes
Shigella sonnei
  Efficacy: yes
Vibrio cholerae
  Efficacy: yes
Proteus mirabilis
  Efficacy: yes
Providencia stuartii
  Efficacy: yes
Chlamydia pneumoniae
  Efficacy: yes
Citrobacter freundii
  Efficacy: yes
Salmonella typhi
  Efficacy: yes
Rickettsiae
  Efficacy: yes
Neisseria gonorrhoeae
  Efficacy: yes
Escherichia coli
  Efficacy: yes
Pseudomonas fluorescens
  Efficacy: yes
Klebsiella oxytoca
  Efficacy: yes
Klebsiella pneumoniae
  Efficacy: yes
Legionella pneumophila
  Efficacy: yes
Bacteroides fragilis
  Efficacy: no
Proteus vulgaris
  Efficacy: yes

## C[C@@H]1[C@H](O)[C@@H](C)/C=C/C=C/CC/C=C/C=C/C=C/C=C/C(O[C@H]2O[C@H](C)[C@@H](O)[C@H](N)[C@@H]2O)CC2O[C@](O)(CC(O)C(O)CCC(O)CC(O)CC(O)CC(=O)O[C@H]1C)CC(O)C2C(=O)O (stereo partly shown) [Nystatin, nystatin]
Candida species
  Efficacy: yes

— patent US20170173002A1, “Compositions and Methods for Treating an Infection” (CMPD LICENSING, LLC, priority 2015, published 2017)
